We go through 17 compounds from patent US20200071316A1, “ACTIVATORS OF THE RETINOIC ACID INDUCIBLE GENE "RIG-I" PATHWAY AND METHODS OF USE THEREOF” (Kineta Immuno-Oncology LLC, priority 2018, published 2020).

Marks after values point to notes of the source that are not given here.

Experiment [1] has as its system CXCL10 secretion by CT26 cells. As to the kind of experiment: RIG-I dependent CXCL10 secretion by CT26 colon carcinoma cells (ELISA). In kind it is cell-based, murine. Particulars: 24 h. In short, it runs like this:
(§1)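 Murine CT26 colon carcinoma cells, and CRISPR-generated RIG-I knockout CT26 cells, were seeded at 1×10^4 cells/well and grown 24 h at 37 °C, 5% CO2, then treated with compounds at 5 to 20 μM. CXCL10 in supernatants was measured by ELISA 24 h after stimulation.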
(In general: ELISA stands for enzyme-linked immunosorbent assay.)

Experiment [2] has as its system THP1-Lucia ISG IRF3 −/− cells. Briefly: IRF3-deficient THP1-Lucia ISG IRF3 −/− reporter assay (counter-screen). The experiment is classed as cell-based. The note with it: Homo sapiens, 18 h after stimulation, read-out: THP1 ISG IRF3 −/−: fold increase of luciferase activity over background; for fold induction at 10 µM: 10 μM compound; for fold induction at 20 µM: 20 μM compound (*). In short, it runs like this: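 PMA-differentiated (100 ng/ml) reporter cells carrying ISRE/ISG54 minimal promoter-driven secreted luciferase were stimulated with compounds at 5–20 μM (mostly 10 μM). Luciferase measured 18 h later and expressed as fold increase over untreated background, binned from "−" (<2.4-fold) to "+++++" (≥40-fold).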
For orientation: Reporter assays use an easily measured gene product as a stand-in for the process of interest.

Experiment [3] relates to RIG-I deficient CT26 RIG-1−/− cells. Briefly: CXCL10 secretion in RIG-I deficient CT26 RIG-1−/− cells (ELISA). In kind it is cell-based, murine. Particulars: 24 h. The procedure, abridged:
as §1

Experiment [4] deals with IRF3 signaling pathway (IRF-inducible ISG54 promotor) in THP1-Lucia ISG cells. Briefly: THP1-Lucia ISG reporter assay: induction of IRF3-dependent luciferase activity. In kind it is cell-based. The note with it: Homo sapiens, PMA-differentiated cells, 18 h after stimulation, read-out: THP1 ISG: fold increase of IRF3-dependent luciferase activity over background; for fold induction at 10 µM: 10 μM compound; for fold induction at 20 µM: 20 μM compound (*). The procedure, abridged: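 PMA-differentiated (100 ng/ml) reporter cells, parental and IRF3−/−, stimulated with compounds at 5–20 μM (mostly 10 μM). Secreted luciferase measured 18 h later. Scored as fold increase over untreated background in bands from "−" (<2.4-fold) to "+++++" (≥40-fold).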

On to `O=C(Nc1ccccn1)c1ccc2nc(NC(=O)c3ccc4ccccc4c3)sc2c1` [Example 14, 2-(naphthalene-2-amido)-N-(pyridin-2-yl)-1,3-benzo-thiazole-6-carboxamide], for which the “CXCL10 secretion by CT26 cells” value in experiment [1] (10 μM compound) is “++++ (“++++” indicates 800 to 1599 pg/mL)”. In addition, the fold induction at 10 µM is less than 2.4 in experiment [2] and 20 to 39 in experiment [4]. Besides, in experiment [3] (10 μM compound), the “CXCL10 secretion by CT26 RIG-I −/− cells” value is given as “− (“−” indicates less than 100 pg/mL)”.

For the compound `CN(C)S(=O)(=O)c1ccc2nc(NC(=O)c3cc4ccccc4cc3OCCN3CCOCC3)sc2c1` [Example 30, N-[6-(dimethylsulfamoyl)-1,3-benzothiazol-2-yl]-3-[2-(morpholin-4-yl)ethoxy]naphthalene-2-carboxamide], the “CXCL10 secretion by CT26 cells” value in experiment [1] (10 μM compound) is on record as “+++ (“+++” indicates 400-799 pg/mL)”. For the same compound, the fold induction at 10 µM in experiment [2] was less than 2.4; in experiment [4], 10 to 19. Further, the “CXCL10 secretion by CT26 RIG-I −/− cells” value in experiment [3] (10 μM compound) is reported as “− (“−” indicates less than 100 pg/mL)”.

Turning to `O=C(Nc1nc2ccc(Cc3ccccc3)cc2s1)c1cc2ccccc2cc1OCCN1CCOCC1` [Example 18, N-(6-benzyl-1,3-benzothiazol-2-yl)-3-[2-(morpholin-4-yl)ethoxy]naphthalene-2-carboxamide], the “CXCL10 secretion by CT26 cells” value in experiment [1] (10 μM compound) is listed as “+ (“+” indicates 100-199 pg/mL)”. Besides, the fold induction at 10 µM in experiment [2] is less than 2.4; in experiment [4] it was 2.4 to 4.9. The “CXCL10 secretion by CT26 RIG-I −/− cells” value in experiment [3] (10 μM compound) is “− (“−” indicates less than 100 pg/mL)”.

`O=C(Nc1nc2ccc(NC(=O)C3CCCCC3)cc2s1)c1cc2ccccc2cc1OCCN1CCOCC1` [Example 21, N-(6-cyclohexaneamido-1,3-benzothiazol-2-yl)-3-[2-(morpholin-4-yl)ethoxy]naphthalene-2-carboxamide]: in experiment [1] (5 μM compound (**)), the “CXCL10 secretion by CT26 cells” value is “+** (“+” indicates 100-199 pg/mL)”. Also, the fold induction at 10 µM in experiment [2] is less than 2.4; in experiment [4] it was 5 to 9.9. The “CXCL10 secretion by CT26 RIG-I −/− cells” value in experiment [3] (5 μM compound (**)) is listed as “−** (“−” indicates less than 100 pg/mL)”.

As for `O=C(Nc1nc2ccc(SC(F)F)cc2s1)c1cc2ccccc2cc1OCCN1CCOCC1` [Example 48, N-{6-[(difluoromethyl)sulfanyl]-1,3-benzothiazol-2-yl}-3-[2-(morpholin-4-yl)ethoxy]naphthalene-2-carboxamide], in experiment [1] (10 μM compound), the “CXCL10 secretion by CT26 cells” value is “++ (“++” indicates 200-399 pg/mL)”. Moreover, the figures for the fold induction at 20 µM in experiment [2] and in experiment [4] were less than 2.4 and 2.4 to 4.9, respectively. For the same compound, in experiment [3] (10 μM compound), the “CXCL10 secretion by CT26 RIG-I −/− cells” value is given as “− (“−” indicates less than 100 pg/mL)”.

Turning to `O=C(Nc1nc2ccc(S(=O)(=O)N3CCOCC3)cc2s1)c1ccc2ccccc2c1` [Example 3, N-[6-(morpholine-4-sulfonyl)-1,3-benzothiazol-2-yl]naphthalene-2-carboxamide], the “CXCL10 secretion by CT26 cells” value in experiment [1] (10 μM compound) was “+++ (“+++” indicates 400-799 pg/mL)”. Also, the fold induction at 10 µM in experiment [2] is less than 2.4; in experiment [4], 10 to 19. Also, the “CXCL10 secretion by CT26 RIG-I −/− cells” value in experiment [3] (10 μM compound) is listed as “− (“−” indicates less than 100 pg/mL)”.

Turning to `Cn1c(C(=O)Nc2nc3ccc(S(=O)(=O)N4CCCC4)cc3s2)cc2ccccc21` [Example 52, 1-methyl-N-[6-(pyrrolidine-1-sulfonyl)-1,3-benzothiazol-2-yl]-1H-indole-2-carboxamide], in experiment [1] (20 μM compound (*)), the “CXCL10 secretion by CT26 cells” value is “+* (“+” indicates 100-199 pg/mL)”. The fold induction at 10 µM in experiment [2] is less than 2.4; in experiment [4], 10 to 19. The “CXCL10 secretion by CT26 RIG-I −/− cells” value in experiment [3] (20 μM compound (*)) is listed as “−* (“−” indicates less than 100 pg/mL)”.

As to `O=C(Nc1nc2ccc(S(=O)(=O)N3CCCC3)cc2s1)c1sc2ccccc2c1OCCN1CCOCC1` [Example 84, 3-[2-(morpholin-4-yl)ethoxy]-N-[6-(pyrrolidine-1-sulfonyl)-1,3-benzothiazol-2-yl]-1-benzothiophene-2-carboxamide], the “CXCL10 secretion by CT26 cells” value in experiment [1] (10 μM compound) was “++ (“++” indicates 200-399 pg/mL)”. Also, the fold induction at 10 µM is less than 2.4 in experiment [2] and 5 to 9.9 in experiment [4]. Besides, the “CXCL10 secretion by CT26 RIG-I −/− cells” value in experiment [3] (10 μM compound) was “− (“−” indicates less than 100 pg/mL)”.

In the case of `O=C(Nc1nc2ccc(OCC(F)(F)F)cc2s1)c1cc2ccccc2cc1OCCCCN1CCOCC1` [Example 58, 3-[4-(morpholin-4-yl)butoxy]-N-[6-(2,2,2-trifluoroethoxy)-1,3-benzothiazol-2-yl]naphthalene-2-carboxamide], the “CXCL10 secretion by CT26 cells” value in experiment [1] (10 μM compound) was “++ (“++” indicates 200-399 pg/mL)”. The fold induction at 10 µM is less than 2.4 in experiment [2] and 5 to 9.9 in experiment [4]. The “CXCL10 secretion by CT26 RIG-I −/− cells” value in experiment [3] (10 μM compound) is “− (“−” indicates less than 100 pg/mL)”.

Regarding `O=C(Nc1nc2ccc(C(=O)Nc3c(Cl)cccc3Cl)cc2s1)c1ccc2ccccc2c1` [Example 13, N-(2,6-dichlorophenyl)-2-(naphthalene-2-amido)-1,3-benzothiazole-6-carboxaraide], the “CXCL10 secretion by CT26 cells” value in experiment [1] (10 μM compound) is “+++++ (“+++++” indicates greater than or equal to 1600 pg/ml)”. For the same compound, the fold induction at 10 µM in experiment [2] is less than 2.4; in experiment [4], 20 to 39. For the same compound, the “CXCL10 secretion by CT26 RIG-I −/− cells” value in experiment [3] (10 μM compound) is recorded as “− (“−” indicates less than 100 pg/mL)”.

In the case of `O=C(Nc1nc2ccc(OCC(F)(F)F)cc2s1)c1ccc2ccccc2c1` [Example 5, N-[6-(2,2,2-trifluoroethoxy)-1,3-benzothiazol-2-yl]naphthalene-2-carboxamide], the “CXCL10 secretion by CT26 cells” value in experiment [1] (10 μM compound) was “+++ (“+++” indicates 400-799 pg/mL)”. Besides, the fold induction at 10 µM is less than 2.4 in experiment [2] and 2.4 to 4.9 in experiment [4]. The “CXCL10 secretion by CT26 RIG-I −/− cells” value in experiment [3] (10 μM compound) is reported as “− (“−” indicates less than 100 pg/mL)”.

`O=C(Nc1nc2ccc(SC(F)F)cc2s1)c1cc2ccccc2cc1OCCCCN1CCOCC1` [Example 49, N-{6-[(difluoromethyl)sulfanyl]-1,3-benzothiazol-2-yl}-3-[4-(morpholin-4-yl)butoxy]naphthalene-2-carboxamide]: the “CXCL10 secretion by CT26 cells” value in experiment [1] (10 μM compound) was “+++ (“+++” indicates 400-799 pg/mL)”. In addition, the fold induction at 10 µM in experiment [2] is less than 2.4; in experiment [4], 20 to 39. The “CXCL10 secretion by CT26 RIG-I −/− cells” value in experiment [3] (10 μM compound) is on record as “− (“−” indicates less than 100 pg/mL)”.

Turning to `O=C(Nc1nc2ccc(S(=O)(=O)N3CCC3)cc2s1)c1cc2ccccc2cc1OCCCCN1CCOCC1` [Example 36, N-[6-(azetidine-1-sulfonyl)-1,3-benzothiazol-2-yl]-3-[4-(morpholin-4-yl)butoxy]naphthalene-2-carboxamide], the “CXCL10 secretion by CT26 cells” value in experiment [1] (10 μM compound) is “+++ (“+++” indicates 400-799 pg/mL)”. The fold induction at 10 µM was less than 2.4 in experiment [2] and 10 to 19 in experiment [4]. Besides, the “CXCL10 secretion by CT26 RIG-I −/− cells” value in experiment [3] (10 μM compound) was “− (“−” indicates less than 100 pg/mL)”.

For `O=C(Nc1nc2ccc(S(=O)(=O)N3CCCC3)cc2s1)c1cc2ccccc2cc1OCCCCN1CCC(F)(F)CC1` [Example 80, 3-[4-(4,4-difluoropiperidin-1-yl)butoxy]-N-[6-(pyrrolidine-1-sulfonyl)-1,3-benzothiazol-2-yl]naphthalene-2-carboxamide], the “CXCL10 secretion by CT26 cells” value in experiment [1] (10 μM compound) is reported as “++++ (“++++” indicates 800 to 1599 pg/mL)”. For the same compound, the fold induction at 10 µM in experiment [2] is less than 2.4; in experiment [4] it was 20 to 39. Moreover, the “CXCL10 secretion by CT26 RIG-I −/− cells” value in experiment [3] (10 μM compound) was “− (“−” indicates less than 100 pg/mL)”.

Consider `O=C(Nc1ccc2nc(NC(=O)c3ccc4ccccc4c3)sc2c1)c1ccccc1` [Example 6, N-(6-benzamido-1,3-benzothiazol-2-yl)naphthalene-2-carboxamide], for which, in experiment [1] (10 μM compound), the “CXCL10 secretion by CT26 cells” value is recorded as “++ (“++” indicates 200-399 pg/mL)”. Further, the fold induction at 10 µM was less than 2.4 in experiment [2] and 20 to 39 in experiment [4]. Besides, the “CXCL10 secretion by CT26 RIG-I −/− cells” value in experiment [3] (10 μM compound) is on record as “− (“−” indicates less than 100 pg/mL)”.

Take `O=C(Nc1nc2ccc(S(=O)(=O)N3CCC3)cc2s1)c1cc2c(cc1OCCCCN1CCOCC1)OCO2` [Example 64, N-[6-(azetidine-1-sulfonyl)-1,3-benzothiazol-2-yl]-6-[4-(morpholin-4-yl)butoxy]-2H-1,3-benzodioxole-5-carboxamide]: in experiment [1] (10 μM compound), the “CXCL10 secretion by CT26 cells” value is “+++ (“+++” indicates 400-799 pg/mL)”. Also, the fold induction at 10 µM in experiment [2] was less than 2.4; in experiment [4] it was 10 to 19. Moreover, the “CXCL10 secretion by CT26 RIG-I −/− cells” value in experiment [3] (10 μM compound) was “− (“−” indicates less than 100 pg/mL)”.

As for `O=C(Cc1ccc2nc(NC(=O)c3ccc4ccccc4c3)sc2c1)NC1CC1` [Example 12, N-{6-[(cyclopropyl-carbamoyl)methyl]-1,3-benzothiazol-2-yl}naphthalene-2-carboxamide], in experiment [1] (10 μM compound), the “CXCL10 secretion by CT26 cells” value was “+++ (“+++” indicates 400-799 pg/mL)”. For the same compound, the fold induction at 20 µM in experiment [2] is less than 2.4; in experiment [4] it was 2.4 to 4.9. Also, the “CXCL10 secretion by CT26 RIG-I −/− cells” value in experiment [3] (10 μM compound) is recorded as “− (“−” indicates less than 100 pg/mL)”.
